Test results published in ChEMBL document CHEMBL4251547, “The discovery of a pan-genotypic, primer grip inhibitor of HCV NS5B polymerase” (Medchemcomm, 2017).

Experiments:
[1] = Cmax in rat at 2 mg/kg, iv; type: ADME, organism-based; set-up: dose 2 mg/kg, route intravenous; conditions: in vivo
[2] = Cmax in rat at 6 mg/kg, po; type: ADME, organism-based; set-up: dose 6 mg/kg, route oral; conditions: in vivo
[3] = Plasma concentration in rat at 6 mg/kg, po after 24 hrs; type: ADME, organism-based
[4] = AUC in rat at 6 mg/kg, po; type: ADME, organism-based; conditions: in vivo
[5] = (§1) Oral bioavailability in rat at 6 mg/kg; type: ADME, organism-based; conditions: in vivo
[6] = Volume of distribution at steady state in rat at 2 mg/kg, iv or 6 mg/kg, po; type: ADME, organism-based; conditions: in vivo, read-out: Vdss
[7] = Volume of distribution at steady state in dog at 1 mg/kg, iv or 3 mg/kg, po; type: ADME, organism-based, Canis lupus familiaris; conditions: in vivo, read-out: Vdss
Canis familiaris [8] = test: AUC in dog at 3 mg/kg, po; type: ADME, organism-based, Canis lupus familiaris; conditions: in vivo
Canis familiaris [9] = test: Oral bioavailability in dog at 3 mg/kg; type: ADME, organism-based, Canis lupus familiaris; conditions: in vivo
[10] = Volume of distribution at steady state in cynomolgus monkey at 1 mg/kg, iv or 3 mg/kg, po; type: ADME, organism-based, Macaca fascicularis; conditions: in vivo, read-out: Vdss
[11] = AUC in cynomolgus monkey at 3 mg/kg, po; type: ADME, organism-based, Macaca fascicularis; conditions: in vivo
[12] = Oral bioavailability in cynomolgus monkey at 3 mg/kg; type: ADME, organism-based, Macaca fascicularis; conditions: in vivo
Rattus norvegicus = test: as §1; type: ADME, organism-based; conditions: in vivo
[13] = Drug uptake in rat liver at 6 mg/kg, po after 24 hrs; type: ADME, organism-based; conditions: read-out: Drug uptake
[14] = Drug uptake in rat liver at 6 mg/kg, po after 48 hrs; type: ADME, organism-based; conditions: read-out: Drug uptake

SMILES	Cmax [1] [nM]	Cmax [2] [nM]	concentration at 24 h [3] [nM]	AUC [4] [µM·h]	bioavailability [5] [%]	Vd [6] [L/kg]	Vd [7] [L/kg]	AUC (Canis familiaris [8]) [µM·h]	F (Canis familiaris [9]) [%]	Vd [10] [L/kg]	AUC [11] [µM·h]	bioavailability [12] [%]	F (Rattus norvegicus) [%]	concentration at 24 h [13] [nM]	concentration at 48 h [14] [nM]
CNC(=O)c1c(-c2ccc(F)cc2)oc2nc(CCC(F)(F)F)c(-c3cccc(C(=O)NC(C)(C)c4ncon4)c3)cc12	1700	1100	150	0.15 to 13	58	5.6	3.3	25	85	2.8	8.3	61	–	–	–
CNC(=O)c1c(-c2ccc(F)cc2)oc2nc(NCC(F)(F)F)c(-c3cccc(C(=O)NC(C)(C)c4ncon4)c3)cc12	2500	600	39	–	–	–	–	–	–	–	–	–	31	–	–
CCNc1nc2oc(-c3ccc(F)cc3)c(C(=O)NC)c2cc1-c1cccc(C(=O)NC(C)(C)C)c1	1700	600	560	18	64	–	–	–	–	–	–	–	–	1600	–
CNC(=O)c1c(-c2ccc(F)cc2)oc2nc(CCC(F)(F)F)c(-c3cccc(C(=O)NC45CC(C4)C5)c3)cc12	3200	900	160	10	44	–	–	–	–	–	–	–	–	900	820
